Patent publication EP0014223A1, “Quaternary aminoacetic anilides, herbicidal compositions containing them and method for influencing plant growth” (CIBA-GEIGY AG, priority 1979, dated 1980)
Where two headings read alike, the source gives them in different places. One block for each molecule: values may come before it.

Assays:
[1] = tested on: Chrysanthemum variety "Aglow"; test: Biological tests on chrysanthemums, height reduction and delay in flowering; format: in vivo; conditions: foliar spray
Description: (§1) In these tests chrysanthemum varieties were used which, on account of their strong growth, can only be reared as pot plants in combination with growth inhibitors.
(§2) About 25 days after potting (14 days after pinching) the plants were sprayed with aqueous preparations of the active substance of the Example and with Alar (known inhibitior for comparison). The growth in height of the plants was measured after three different periods (see table) and the growth inhibition is expressed in percent of the height measured on untreated plants (check = 0% reduction).
(§3) The delay in flowering was evaluated as follows: • ^* = 3-4 days delay DAA = Days after application • ^** = 4-7 days delay

[2] = tested on: Chrysanthemum variety "Golden Anne"; test: as above; format: in vivo; conditions: foliar spray
Description: as §1, §2, §3

[3] = tested on: Chrysanthemum variety "Wedgewood"; test: as above; format: in vivo; conditions: foliar spray
Description: as §1, §2, §3

[4] = tested on: Chrysanthemum variety "Regal Anne"; test: as above; format: in vivo
Description: as §1, §2, §3

chrysanthemums = test: Trials under practical conditions on chrysanthemums; format: in vivo; conditions: independent of environmental conditions
Text: This inhibition is independent of environmental conditions (e.g. it is not light-dependent). Depending on the applied rate, any desired degree of growth inhibition can be obtained.

[5] = Solubility of the product; format: physicochemical
Description: (§4) 14,3 g (0,06 mole) of pyrrolidinoacetic acid 3-chloro-anilide are dissolved in 50 ml of ethyl acetate and then 9,4 g (0,078 mole) of allyl bromide are added. The reaction mixture is refluxed for 3 hours and the quaternised end product initially separates out as an oil which chrystallises after a brief time.After filtration with suction, washing with ethyl acetate and drying in vacuo at 50°C, 21,5 g (99,5% of theory) of the quaternary allyl pyrrolidino bromide of the formula [drawing 3] are obtained. Meting point: 144-147°C. The product is colourless, soluble in water (3,7%) and methanol (30%) and stable against hydrolysis in all pH-ranges from 3 to 10.

[6] = tested on: Soya plants of the variety "Hark"; test: Inhibition of the vegetative growth and yield increase of soya plants; format: in vivo; conditions: for Inhibition rating: 5-trifoliate leaf stage, 4 weeks after application, linear rating 1-9; for % increase of pods A (number of pods) / % increase of pods B (weight of pods): versus untreated control plants
Description: Soya plants of the variety "Hark" were reared in earthenware pots and sprayed at the 5-trifoliate leaf stage with aqueous preparations of the active substance of the Example. The active substance concentrations in the spray broth were 500, 100 and 50 ppm respectively. The plant growth was evaluated 4 weeks after application in accordance with the following linear rating: • 1 = strong inhibition (no growth from the time of application) • 9 = no inhibition (growth as untreated controls)
The yield increase was evaluated at the sime time in percent increase of the pods when compared with the yield of pods obtained with untreated control plants.
Value A expresses the % increase in number of pods Value B express the % increase in weight of pods.

[7] = tested on: Chrysanthemum variety "Regal Anne"; test: Biological tests on chrysanthemums, height reduction and delay in flowering; format: in vivo; conditions: Soil drench, 250 ppm
chrysanthemum varieties = test: Biological tests on chrysanthemums, summary over all varieties; format: in vivo; conditions: depending on the variety; in sufficient water to wet all the foliage
Description: as §1, §2
Depending on the variety the optimal growth inhibition (20 to 35%) was obtained with rates between 125-250 ppm of the active ingredient of the Example in sufficient water to wet all the foliage. With one variety a soil drench application was also performed.

[8] = Stability against hydrolysis; format: physicochemical; conditions: all pH-ranges from 3 to 10
Description: as §4

SMILES: CN(C)NC(=O)CCC(=O)O [A, succinic acid mono-N-dimethylhydrazide, reference compound]
delay in flowering ([1]; 3400 ppm): * (^* = 3-4 days delay)
height reduction against check ([1]; 3400 ppm, 14 DAA): 20%
height reduction against check ([1]; 3400 ppm, 32 DAA): 30%
height reduction against check ([1]; 3400 ppm, 39 DAA): 25%
delay in flowering ([2]; 3400 ppm): * (^* = 3-4 days delay)
height reduction against check ([2]; 3400 ppm, 14 DAA): 30%
height reduction against check ([2]; 3400 ppm, 32 DAA): 30%
height reduction against check ([2]; 3400 ppm, 39 DAA): 25%
delay in flowering ([3]; 3400 ppm): * (^* = 3-4 days delay)
height reduction against check ([3]; 3400 ppm, 14 DAA): 30%
height reduction against check ([3]; 3400 ppm, 32 DAA): 30%
height reduction against check ([3]; 3400 ppm, 39 DAA): 25%
delay in flowering ([4]; foliar spray, 3400 ppm): * (^* = 3-4 days delay)
height reduction against check ([4]; foliar spray, 3400 ppm, 11 DAA): 40%
height reduction against check ([4]; foliar spray, 3400 ppm, 30 DAA): 40%
height reduction against check ([4]; foliar spray, 3400 ppm, 55 DAA): 25%

solubility ([5]; methanol, organic solvent or mixture, read-out: soluble in methanol): 300 mg/mL
solubility ([5]; water, read-out: soluble in water): 37 mg/mL
stable against hydrolysis [8]: stable
SMILES: C=CC[N+]1(CC(=O)Nc2cccc(Cl)c2)CCCC1 [B]
delay in flowering ([1]; 125 ppm): * (^* = 3-4 days delay)
height reduction against check ([1]; 125 ppm, 14 DAA): 0%
height reduction against check ([1]; 125 ppm, 32 DAA): 0%
height reduction against check ([1]; 125 ppm, 39 DAA): 10%
delay in flowering ([1]; 250 ppm): * (^* = 3-4 days delay)
height reduction against check ([1]; 250 ppm, 14 DAA): 10%
height reduction against check ([1]; 250 ppm, 32 DAA): 10%
height reduction against check ([1]; 250 ppm, 39 DAA): 25%
height reduction against check ([1]; 500 ppm, 14 DAA): 15%
height reduction against check ([1]; 500 ppm, 32 DAA): 25%
height reduction against check ([1]; 500 ppm, 39 DAA): 30%
delay in flowering ([2]; 125 ppm): * (^* = 3-4 days delay)
height reduction against check ([2]; 125 ppm, 14 DAA): 10%
height reduction against check ([2]; 125 ppm, 32 DAA): 30%
height reduction against check ([2]; 125 ppm, 39 DAA): 20%
delay in flowering ([2]; 250 ppm): ** (^** = 4-7 days delay)
height reduction against check ([2]; 250 ppm, 14 DAA): 20%
height reduction against check ([2]; 250 ppm, 32 DAA): 35%
height reduction against check ([2]; 250 ppm, 39 DAA): 30%
delay in flowering ([2]; 500 ppm): ** (^** = 4-7 days delay)
height reduction against check ([2]; 500 ppm, 14 DAA): 30%
height reduction against check ([2]; 500 ppm, 32 DAA): 40%
height reduction against check ([2]; 500 ppm, 39 DAA): 35%
delay in flowering ([3]; 125 ppm): * (^* = 3-4 days delay)
height reduction against check ([3]; 125 ppm, 14 DAA): 10%
height reduction against check ([3]; 125 ppm, 32 DAA): 10%
height reduction against check ([3]; 125 ppm, 39 DAA): 20%
delay in flowering ([3]; 250 ppm): * (^* = 3-4 days delay)
height reduction against check ([3]; 250 ppm, 14 DAA): 15%
height reduction against check ([3]; 250 ppm, 32 DAA): 15%
height reduction against check ([3]; 250 ppm, 39 DAA): 25%
delay in flowering ([3]; 500 ppm): * (^* = 3-4 days delay)
height reduction against check ([3]; 500 ppm, 14 DAA): 15%
height reduction against check ([3]; 500 ppm, 32 DAA): 25%
height reduction against check ([3]; 500 ppm, 39 DAA): 25%
height reduction against check ([4]; Soil drench, 250 ppm, 30 DAA): 50%
height reduction against check ([4]; Soil drench, 250 ppm, 55 DAA): 50%
delay in flowering ([4]; foliar spray, 125 ppm): * (^* = 3-4 days delay)
height reduction against check ([4]; foliar spray, 125 ppm, 11 DAA): 10%
height reduction against check ([4]; foliar spray, 125 ppm, 30 DAA): 25%
height reduction against check ([4]; foliar spray, 125 ppm, 55 DAA): 25%
delay in flowering ([4]; foliar spray, 250 ppm): * (^* = 3-4 days delay)
height reduction against check ([4]; foliar spray, 250 ppm, 11 DAA): 25%
height reduction against check ([4]; foliar spray, 250 ppm, 30 DAA): 50%
height reduction against check ([4]; foliar spray, 250 ppm, 55 DAA): 25%
delay in flowering ([4]; foliar spray, 500 ppm): * (^* = 3-4 days delay)
height reduction against check ([4]; foliar spray, 500 ppm, 11 DAA): 25%
height reduction against check ([4]; foliar spray, 500 ppm, 30 DAA): 60%
height reduction against check ([4]; foliar spray, 500 ppm, 55 DAA): 40%
delay in flowering ([4]; foliar spray, 1000 ppm): * (^* = 3-4 days delay)
height reduction against check ([4]; foliar spray, 1000 ppm, 11 DAA): 25%
height reduction against check ([4]; foliar spray, 1000 ppm, 30 DAA): 60%
height reduction against check ([4]; foliar spray, 1000 ppm, 55 DAA): 40%
delay in flowering ([4]; foliar spray, 2000 ppm): ** (^** = 4-7 days delay)
height reduction against check ([4]; foliar spray, 2000 ppm, 11 DAA): 40%
height reduction against check ([4]; foliar spray, 2000 ppm, 30 DAA): 75%
height reduction against check ([4]; foliar spray, 2000 ppm, 55 DAA): 50%
inhibition of internode growth (chrysanthemums): uniform and reproducible inhibition of internode growth
Inhibition rating ([6]; 50 ppm spray): 6
% increase of pods A (number of pods) ([6]; 50ppm): 45%
% increase of pods B (weight of pods) ([6]; 50ppm): 43%
Inhibition rating ([6]; 100 ppm spray): 7
% increase of pods A (number of pods) ([6]; 100 ppm): 22%
% increase of pods B (weight of pods) ([6]; 100 ppm): 11%
Inhibition rating ([6]; 500 ppm spray): 6
% increase of pods A (number of pods) ([6]; 500 ppm): 2%
% increase of pods B (weight of pods) ([6]; 500 ppm): 0%
delay in flowering [7]: ** (^** = 4-7 days delay)
height reduction against check ([7]; 11 DAA): 25%
rates giving the optimal growth inhibition (20 to 35%) (chrysanthemum varieties): 125-250 ppm
